Data reported in publication PMC9481533, “Structure-based discovery of small molecules that disaggregate Alzheimer’s disease tissue derived tau fibrils in vitro” (Nature Communications, 2022).
“And” between values parts separate entries of the source, which are not always exact repeats. Equal values may be shown once. Blank lines part the entries; values can stand above or below the compound they belong to.

What was measured:
[1] = molecular target: crude AD brain extracts (tau seeds) in HEK293T tau biosensor cells (Homo sapiens, UniProt P10636); experiment: Tau biosensor cell seeding assay, screen with crude AD brain extracts; format: cell-based; details: for Number of seeded aggregates in tau biosensor cells (normalized to confluence), Fig. 2e: 10 μM inhibitor on cells, seeds pre-incubated 16–18 h at 4 °C, individual replicates (n=3), DMSO control 10734.9/12808.5/11145.3; for Inhibition of seeding in biosensor cells: 10 μM screen
crude AD brain extracts (tau seeds) in HEK293T tau biosensor cells, sequence (P10636 623-695 limits assumed): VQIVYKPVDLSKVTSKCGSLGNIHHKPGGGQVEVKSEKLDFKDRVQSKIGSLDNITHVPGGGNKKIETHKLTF
From the text: From the in silico screen, compounds were ranked and 46 were selected for further experimental validation based on the total binding energy of the ligand/fibril complex. The experimental assessment consisted of direct measures of fibril disassembly (Fig. 2d, e and Supplementary Table 3) and assessment of the seeding capability of the products of disassembled AD tau fibrils in a biosensor cell assay. Disaggregating molecules that produce active seeds are undesirable for therapy and are excluded from further study. HEK293T cells expressing CFP- or YFP-fused tau are transduced with exogenous AD tau fibrils. Externally applied AD-tau fibrils then induce the aggregation of the endogenous fluorescent tau, resulting in the formation of FRET-positive intracellular aggregates, visible as bright puncta by fluorescence microscopy (Fig. 2f). Automated image analysis of visible puncta provides an objective quantification of seeded aggregation. […] Although biosensors may be limited in reporting structural characteristics of fibril progeny, they offer exquisitely sensitive measures of tau seeding activity—the ability for fibrils to recruit monomeric protein into fibrillar form, which is thought to be the mechanism for tau spreading in AD.
(§1) Human autopsy samples were obtained by the Mayo Clinic Brain Bank and UCLA Pathology Department according to HHS regulations from patients consenting to autopsy. Samples were provided to the researchers of this study as anonymized tissues. For purification of paired helical filaments (PHFs) and straight filaments (SFs) from AD brain tissue, extractions were performed according to the previously published protocol without any modifications. […] For biosensor seeding assays with crude AD brain extracts, fresh-frozen tissue from neuropathologically confirmed AD cases was thawed and cut into a 0.2–0.3 g sections. Tissue was manually homogenized in a 15 ml disposable tube in 1 ml of 50 mM Tris, pH 7.4 with 150 mM NaCl, and then aliquoted to PCR tubes and sonicated in a cuphorn bath for 120 min under 30% power at 4 °C in a recirculating ice water bath, according to reference.
(§2) HEK293T cell lines stably expressing tau-K18 P301S-eYFP were obtained from Marc Diamond[25] and used without further characterization or authentication. […] Inhibitors were dissolved in DMSO. […] After twenty minutes, 10 µl of fibrils were added to 90 µl of tau biosensor cells. The number of seeded aggregates was determined by imaging the entire well of a 96-well plate in triplicate using a Celigo Image Cytometer (Nexcelom) in the YFP channel. The number of aggregates in a given image was determined using an ImageJ 2.3.0[50] script, which subtracts the background fluorescence from unseeded cells, and then counts the number of aggregates as peaks with fluorescence above the background using the built-in Particle Analyzer. The number of aggregates was normalized to the confluence of each well, and dose-response plots were generated by calculating the average and standard deviations from triplicate measurements.

[2] = molecular target: T1, AD brain-derived tau fibrils (Homo sapiens, UniProt P10636); experiment: Western blot of insoluble tau after compound treatment; format: biochemical; details: 72 h at 37 °C
T1 sequence (P10636 623-695 limits assumed): as above
Protocol: Proteins were transferred from gel to nitrocellulose membrane using an iBLOT2 system. The membrane was blocked for 1 h in TBST with 5% milk and washed with TBST three times. The membrane was then incubated with primary antibody (anti-tau A0024 (Dako), 1:4000 dilution in 2% milk/TBST solution) for 1 h, washed three times with TBST, incubated with horseradish peroxidase-conjugated secondary antibody (goat anti-mouse IgG H and L (HRP); 1:5000 Dilution in 2% milk/TBST), and washed three times in TBST.

[3] = molecular target: T1, AD brain-derived tau fibrils; experiment: Negative stain EM and quantitative EM (qEM) of tau fibrils after compound treatment; format: biochemical; details: for Quantitation of fibril number on EM images (qEM), Fig. 3c: relative scale, fibrils alone about 1, individual replicates of 33 micrographs
Protocol: Negatively stained EM Grids were prepared by depositing 6 µl of sample on formvar/carbon-coated copper grids (400 mesh) for 3 min. The sample was rapidly wicked using filter paper without drying the grid and stained with 1% uranyl acetate for 2 min. […] Fibrils were counted from collections of 33 micrographs (in triplicate) for each experimental condition.

[4] = molecular target: brain-purified AD-tau fibrils in HEK293T tau biosensor cells (Homo sapiens, UniProt P10636); experiment: Tau biosensor cell seeding assay, dose-dependent inhibition with brain-purified AD-tau fibrils; format: cell-based; details: for Number of seeded aggregates, Supp. Fig. 7: individual replicates
brain-purified AD-tau fibrils in HEK293T tau biosensor cells, sequence (P10636 623-695 limits assumed): as above
Protocol: as §1, §2

Neuro2a cells = experiment: MTT cytotoxicity assay; format: cell-based; details: for MTT cell viability, compound alone, Fig. 3f: Neuro2a, final small molecule concentration 10 µM, 24 h, vehicle = 100% viable, individual replicates, 10 µM
Protocol: (§3) In all, 90 µL of Neuro2a cells were plated on clear 96 well plates (Falcon 353072) at 6000 cells per well and given 24 h to adhere to the plate. Subsequent treatment consisted of PHF samples that were co-incubated with or without 100 µM of small molecules for 48 h at 37 °C, with 10 µl applied per well for a final small molecule concentration of 10 µM. After another 24-h incubation at 37 °C, 20 µl of Thiazolyl Blue Tetrazolium Bromide MTT dye (Sigma; 5 mg/ml stock in DPBS) was added to each well and further incubated for 3.5 h at 37 °C. The assay was arrested by replacement of all media with 100% DMSO and transferred to a SpectraMax MF reader. Background 700 nm readings were subtracted from the absorbance readings at 570 nm. Cells treated with 100% DMSO were designated as 0% viable and those treated only with vehicle were designated as 100% viable. Other well readings were normalized to these values.

MTT cytotoxicity assay = format: cell-based; details: mouse, Neuro2a cells, Neuro2a; final small molecule concentration 10 µM; 24 h; vehicle = 100% viable; individual replicates; read-out: MTT cell viability, compound alone, Fig. 3f
Protocol: as §3

AD-tau PHF = AD-tau PHF (Homo sapiens, UniProt P10636); experiment: CryoEM occupancy analysis of EGCG density; format: binding; details: for Occupancy of density at Site 1 relative to fibril backbone / Occupancy of density at Site 2 relative to fibril backbone / Occupancy of density at Site 3 relative to fibril backbone: map low-pass filtered to 7 Å
AD-tau PHF, sequence (P10636 623-697 limits assumed): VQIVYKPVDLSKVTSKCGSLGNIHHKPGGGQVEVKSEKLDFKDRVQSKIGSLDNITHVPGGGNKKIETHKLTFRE

Brain-derived tau PHFs = Brain-derived tau PHFs (Homo sapiens, UniProt P10636); experiment: Dot blot analysis of EGCG time course (GT38, AT8); format: biochemical; details: for GT38 dot blot signal (AD tau aggregates), Supp. Fig. 1 / AT8 dot blot signal (total hyperphosphorylated tau), Supp. Fig. 1: replicates
Brain-derived tau PHFs, sequence (P10636 623-695 limits assumed): as the sequence (P10636 623-695 limits assumed) above
Protocol: Samples were spotted onto nitrocellulose membrane, 20 µl were spotted for each condition, spotting 2 µl at a time and allowing to dry in between. The membrane was blocked for 1 h in TBST with 5% milk and washed with TBST three times. The membrane was then incubated with primary antibody (either anti-tau GT38 (obtained from Virginia Lee lab at UPenn) or anti-phospho-tau AT8 (cat # MN1020, lot # UL2906281Z), 1:4000 dilution in 2% milk/TBST solution) for 1 h, washed three times with TBST, incubated with horseradish peroxidase-conjugated secondary antibody (goat anti-mouse IgG H and L (HRP); 1:5000 Dilution in 2% milk/TBST), and washed three times in TBST. Signal was detected with Pierce ECL Plus Western Blotting Substrate (cat # 32132), and the blot was imaged with a Pharos FX Plus Molecular Imager.

[5] = tested on: biosensor cells (HEK293T); experiment: Toxicity to biosensor cells under seeding assay conditions; format: cell-based; details: under the assayed conditions (10 μM screen)
Protocol: HEK293T cell lines stably expressing tau-K18 P301S-eYFP were obtained from Marc Diamond[25] and used without further characterization or authentication. Cells were maintained in DMEM (Life Technologies, cat. 11965092) supplemented with 10% (vol/vol) FBS (Life Technologies, cat. A3160401), 1% penicillin/streptomycin (Life Technologies, cat. 15140122), and 1% Glutamax (Life Technologies, cat. 35050061) at 37 °C, 5% CO2 in a humidified incubator. […] Inhibitors were dissolved in DMSO. For seeding, inhibitor-treated seeds were sonicated in a cuphorn water bath for 3 min, and then mixed with 1 volume of […] (Life Technologies, cat. 11668027) prepared by diluting 1 µl of Lipofectamine in 19 µl of OptiMEM. After twenty minutes, 10 µl of fibrils were added to 90 µl of tau biosensor cells. The number of seeded aggregates was determined by imaging the entire well of a 96-well plate in triplicate using a Celigo Image Cytometer (Nexcelom) in the YFP channel. The number of aggregates in a given image was determined using an ImageJ 2.3.0[50] script, which subtracts the background fluorescence from unseeded cells, and then counts the number of aggregates as peaks with fluorescence above the background using the built-in Particle Analyzer. […]

- Number of seeded aggregates in tau biosensor cells (normalized to confluence), Fig. 2e ([1]; listed as 6870810): 4788.26 and 4837.93 and 6713.19
- Reduction of insoluble tau by Western blot [2]: reduction in insoluble tau species
- Quantitation of fibril number on EM images (qEM), Fig. 3c [3]: 0.7296 and 1.4265 and 0.6447
- IC50 ([4]; brain-purified AD-tau fibrils, read-out: IC50, inhibition of seeding efficiency in biosensor cells): < 5 µM
- Number of seeded aggregates, Supp. Fig. 7 ([4]; inhibitor concentration 1 (µM)): 12634.1 and 17143.6 and 11095.2
- Number of seeded aggregates, Supp. Fig. 7 ([4]; inhibitor concentration 2 (µM)): 9200.81 and 9676.73 and 6081.22
- Number of seeded aggregates, Supp. Fig. 7 ([4]; inhibitor concentration 5 (µM)): 9500.56 and 10385 and 5182.56
- Number of seeded aggregates, Supp. Fig. 7 ([4]; inhibitor concentration 10 (µM)): 11886 and 11650.5 and 6860.55
- Number of seeded aggregates, Supp. Fig. 7 ([4]; inhibitor concentration 40 (µM)): 3439.45 and 1968.58 and 2178.79
SMILES: O=C(Nc1cccc(C(F)(F)F)c1)N1c2ccccc2Sc2ccccc21 [CNS-17, N-[3-(trifluoromethyl)phenyl]-10H-phenothiazine-10-carboxamide]
- Fibril reduction by qEM [3]: a corresponding reduction in fibril density was not seen by qEM
- MTT cell viability, compound alone, Fig. 3f (Neuro2a cells): 66.6981% and 63.9984%
- viability at 24 h, 10 µM (MTT cytotoxicity assay): 74.1%

- Occupancy of density at Site 1 relative to fibril backbone (AD-tau PHF; 1-hour EGCG): 43%
- Occupancy of density at Site 2 relative to fibril backbone (AD-tau PHF; 1-hour EGCG): 44%
- Occupancy of density at Site 3 relative to fibril backbone (AD-tau PHF; 1-hour EGCG): 54%
- Occupancy of EGCG at Site 1 (AD-tau PHF; 3-h structure): 66%
- Occupancy of density at Site 1 relative to fibril backbone (AD-tau PHF; 3 hr. EGCG): 67%
- Occupancy of density at Site 2 relative to fibril backbone (AD-tau PHF; 3 hr. EGCG): 56%
- Occupancy of density at Site 3 relative to fibril backbone (AD-tau PHF; 3 hr. EGCG): 62%
- Number of seeded aggregates in tau biosensor cells (normalized to confluence), Fig. 2e ([1]; listed as EGCG-PBS): 1.145 and 4.487 and 178.587
- Inhibition of seeding in biosensor cells [1]: prevents the formation of any seeds
- Electron microscopy of tau fibrils treated with compound (qualitative) ([3]; negative stain EM): nearly gone after 24 h of incubation
- Quantitation of fibril number on EM images (qEM), Fig. 3c [3]: 0 and 0.009982
- Time at which reduction in aggregate level begins (GT38 dot blot) (Brain-derived tau PHFs; 37 °C): 1 to 3 h
- GT38 dot blot signal (AD tau aggregates), Supp. Fig. 1 (Brain-derived tau PHFs; EGCG incubation 1 h at 37 °C, relative to 0 h): 0.7905 and 0.6952 and 0.7857
- AT8 dot blot signal (total hyperphosphorylated tau), Supp. Fig. 1 (Brain-derived tau PHFs; EGCG incubation 1 h at 37 °C): 0.7495 and 1.415 and 0.8474
- AT8 dot blot signal (total hyperphosphorylated tau), Supp. Fig. 1 (Brain-derived tau PHFs; EGCG incubation 3 h at 37 °C): 1.189 and 1.169 and 0.7844
- GT38 dot blot signal (AD tau aggregates), Supp. Fig. 1 (Brain-derived tau PHFs; EGCG incubation 3 h at 37 °C): 0.6381 and 0.5905 and 0.6857
- AT8 dot blot signal (total hyperphosphorylated tau), Supp. Fig. 1 (Brain-derived tau PHFs; EGCG incubation 6 h at 37 °C): 1.107 and 1.408 and 0.8471
- GT38 dot blot signal (AD tau aggregates), Supp. Fig. 1 (Brain-derived tau PHFs; EGCG incubation 6 h at 37 °C): 0.3571 and 0.3381 and 0.6238
- AT8 dot blot signal (total hyperphosphorylated tau), Supp. Fig. 1 (Brain-derived tau PHFs; EGCG incubation 24 h at 37 °C): 1.122 and 1.203 and 1.059
- GT38 dot blot signal (AD tau aggregates), Supp. Fig. 1 (Brain-derived tau PHFs; EGCG incubation 24 h at 37 °C): 0.2286 and 0.2714 and 0.4143
SMILES: O=C(O[C@@H]1Cc2c(O)cc(O)cc2O[C@@H]1c1cc(O)c(O)c(O)c1)c1cc(O)c(O)c(O)c1 [EGCG, Epigallocatechin gallate]
- Reduction of insoluble tau by Western blot [2]: substantially reduce the amount of insoluble tau
- Neuronal cytotoxicity of compound (Neuro2a cells; Neuro 2a (N2a) cells, MTT): no significant cytotoxicity
- MTT cell viability, compound alone, Fig. 3f (Neuro2a cells): 108.947% and 94.1622%
- viability at 24 h, 10 µM (MTT cytotoxicity assay): 102%

- Number of seeded aggregates in tau biosensor cells (normalized to confluence), Fig. 2e [1]: 356.976 and 1174.27 and 1749.15
- Inhibition of seeding in biosensor cells [1]: effective inhibitor
SMILES: Oc1cccc(-c2c3nc(c(-c4cccc(O)c4)c4ccc([nH]4)c(-c4cccc(O)c4)c4nc(c(-c5cccc(O)c5)c5ccc2[nH]5)CC4)C=C3)c1 [FDA-A4, Temoporfin]
- Toxicity to biosensor cells [5]: toxic to biosensor cells
